Measured values from patent publication US4472582A, “3,5-Disubstituted-4'-(9-acridinylamino)-methane-sulfon-m-anisidide compounds having antitumor properties” (Development Finance Corporation of New Zealand, priority 1979, dated 1984).

test system: L1210 leukemia (ip); test: Antileukemic screen, L1210 tumour ip, drug ip qd 1-5; assay type: in vivo, mice (C3H/DBA2 F1 hybrids); conditions: L1210-ip, qd 1-5; Table IV
Source text: In initial screening a standard drug administration schedule has been employed (ip, qd 1-5) and mice (C3 H/DBA2 F1 hybrids) bred in the laboratory, receive a standard tumor inoculum of 10^5 L1210 cells ip on day 0. After range finding experiments, an LD10 dose has then been derived employing doses separated by 0.05 log.dose units, an acceptable soluble drug formulation (B. F. Cain, R. N. Seelye and G. J. Atwell, J. Med. Chem., 17, 922-930 (1974)) and groups of six tumored mice at each dose level. Deaths occuring before day 8 have been taken as resulting from drug toxicity. From the linear regression relating percent probit-mortality and the logarithms of the corresponding doses, an LD10 value has been derived. Profiles of antileukemic activity have been obtained employing doses separated by 0.09 log.dose intervals. Significant percentage increases in life span of leukemic animals, obtained at and below the LD10 dose, have been linearly correlated with the logarithms of the corresponding doses. The increase in life span (ILS) specified by the life extension-log.dose regression line at the measured LD10 provides a representative measure of antileukemic effectiveness at a standard host load in toxicity (W. A. Denny and B. F. Cain, J. Med. Chem., 21, 430-437 (1978)). For congener selection ILS has been employed as a measure of factor (1) above and LD10 for factor (2). Desirable drug pharmacokinetic properties (factor (3)) have been screened for by employing standard ip drug administration and implanting tumor more remotely; either subcutaneously (sc) or intracerabrally (ic) (B. F. Cain and G. J. Atwell Europ J. Cancer, 10, 539 549 (1974), B. F. Cain and G. J. Atwell, J. Med. Chem., 19 1409-1416 (1976)).
ILS and LD10=as defined above.
D40=the drug dose necessary to provide 40% ILS in standard L1210 assays.

Row | SMILES | ILS Observed
1 | COc1cc(NS(C)(=O)=O)ccc1Nc1c2ccccc2nc2cc(Br)c(N)cc12 [Compound C1] | 90%
2 | COc1cc(NS(C)(=O)=O)ccc1Nc1c2ccccc2nc2cc(C(F)(F)F)c(N)cc12 [Compound C2] | 108%
3 | COc1cc(NS(C)(=O)=O)ccc1Nc1c2ccccc2nc2c(C)c([N+](=O)[O-])ccc12 [Compound C3] | 54%
4 | COc1cc(NS(C)(=O)=O)ccc1Nc1c2ccccc2nc2c(C)c(C)ccc12 [Compound C4] | 79%
5 | COc1cc(NS(C)(=O)=O)ccc1Nc1c2ccc([N+](=O)[O-])cc2nc2c(C)cccc12 [Compound C5] | 107%
6 | COc1cc(NS(C)(=O)=O)ccc1Nc1c2ccc([N+](=O)[O-])cc2nc2c(OC)cccc12 [Compound C6] | 66%
7 | COc1cc(NS(C)(=O)=O)ccc1Nc1c2ccc(N)cc2nc2c(C)cccc12 [Compound C7] | 125%
8 | COc1cc(NS(C)(=O)=O)ccc1Nc1c2ccc(I)cc2nc2c(C)cccc12 [Compound C8] | 86%
9 | COc1cc(NS(C)(=O)=O)ccc1Nc1c2ccc(I)cc2nc2c(OC)cccc12 [Compound C9] | 63%
10 | CNc1ccc2c(Nc3ccc(NS(C)(=O)=O)cc3OC)c3cccc(C)c3nc2c1 [Compound C10] | 68%
11 | COc1cc(NS(C)(=O)=O)ccc1Nc1c2ccc(Cl)cc2nc2c(C)cccc12 [Compound C11] | 57%
12 | COc1cc(NS(C)(=O)=O)ccc1Nc1c2ccc(Cl)cc2nc2c(OC)cccc12 [Compound C12] | 82%
13 | COc1cc(NS(C)(=O)=O)ccc1Nc1c2ccc(C)cc2nc2c(C)cccc12 [Compound C13] | 97%
14 | COc1cc(NS(C)(=O)=O)ccc1Nc1c2ccc(C)cc2nc2c(C(N)=O)cccc12 [Compound C14] | 100%
15 | COc1cc(NS(C)(=O)=O)ccc1Nc1c2ccc(Cl)cc2nc2c(C(N)=O)cccc12 [Compound C15] | 90%
16 | COc1cc(NS(C)(=O)=O)ccc1Nc1c2ccc([N+](=O)[O-])cc2nc2c(C(N)=O)cccc12 [Compound C16] | 100%

Row | SMILES | ILS Observed
17 | COc1cc(NS(C)(=O)=O)ccc1Nc1c2ccc(C(N)=O)cc2nc2c(C)cccc12 [Compound C17] | 150%
18 | COc1cc(NS(C)(=O)=O)ccc1Nc1c2ccc(C(N)=O)cc2nc2c(OC)cccc12 [Compound C18] | 70%
19 | COc1cc(NS(C)(=O)=O)ccc1Nc1c2ccc(Cl)cc2nc2cc(Cl)ccc12 [Compound C19] | 52%
20 | COc1cc(NS(C)(=O)=O)ccc1Nc1c2ccc(Cl)cc2nc2cc(C(F)(F)F)ccc12 [Compound C20] | 5%
21 | COc1cc(NS(C)(=O)=O)ccc1Nc1c2ccc(Br)cc2nc2cc(Br)ccc12 [Compound C21] | 82%
22 | COc1cc(NS(C)(=O)=O)ccc1Nc1c2ccc(C)cc2nc2cc([N+](=O)[O-])ccc12 [Compound C22] | 91%
23 | COc1cc(NS(C)(=O)=O)ccc1Nc1c2ccc([N+](=O)[O-])cc2nc2cc([N+](=O)[O-])ccc12 [Compound C23] | 58%
24 | COc1cc(NS(C)(=O)=O)ccc1Nc1c2cccc(C)c2nc2c(C)cccc12 [Compound C24] | 87%
25 | COc1cc(NS(C)(=O)=O)ccc1Nc1c2ccccc2nc2c(C)c(C)c(N)cc12 [Compound C25] | 61%
26 | COc1cc(NS(C)(=O)=O)ccc1Nc1c2cc(N)c(Br)cc2nc2c(C)cccc12 [Compound C26] | 83%
27 | COc1cc(NS(C)(=O)=O)ccc1Nc1c2cccc(C)c2nc2c(C)c([N+](=O)[O-])ccc12 [Compound C27] | 28%
28 | COc1cc(NS(C)(=O)=O)ccc1Nc1c2cccc(C)c2nc2c(C)c(C)ccc12 [Compound C28] | 76%
29 | COc1cc(NS(C)(=O)=O)ccc1Nc1c2ccc(C)cc2nc2c(C)c(C)ccc12 [Compound C29] | 58%
30 | COc1cc(NS(C)(=O)=O)ccc1Nc1c2ccc([N+](=O)[O-])cc2nc2c(C)c(C)ccc12 [Compound C30] | 92%
31 | COc1cc(NS(C)(=O)=O)ccc1Nc1c2ccc(N)cc2nc2c(C)c(C)ccc12 [Compound C31] | 79%
32 | CNc1ccc2c(Nc3ccc(NS(C)(=O)=O)cc3OC)c3ccc(C)c(C)c3nc2c1 [Compound C32] | 64%

same assay, conditions: in words

Row | SMILES | Observed ILS compared with predicted ILS
33 | COc1cc(NS(C)(=O)=O)ccc1Nc1c2ccccc2nc2cc(C(F)(F)F)c(N)cc12 [Compound C2] | observed ILS values greater than their predicted ILS values
34 | COc1cc(NS(C)(=O)=O)ccc1Nc1c2ccc([N+](=O)[O-])cc2nc2c(C)cccc12 [Compound C5] | observed ILS values greater than their predicted ILS values
35 | COc1cc(NS(C)(=O)=O)ccc1Nc1c2ccc(N)cc2nc2c(C)cccc12 [Compound C7] | observed ILS values greater than their predicted ILS values
36 | COc1cc(NS(C)(=O)=O)ccc1Nc1c2ccc([N+](=O)[O-])cc2nc2c(C(N)=O)cccc12 [Compound C16] | observed ILS values greater than their predicted ILS values
37 | COc1cc(NS(C)(=O)=O)ccc1Nc1c2ccc(C(N)=O)cc2nc2c(C)cccc12 [Compound C17] | observed ILS values greater than their predicted ILS values
38 | COc1cc(NS(C)(=O)=O)ccc1Nc1c2ccc(C)cc2nc2cc([N+](=O)[O-])ccc12 [Compound C22] | observed ILS values greater than their predicted ILS values

same assay, conditions: monosubstituted m-AMSA; Table V

Row | SMILES | ILS Observed
39 | COc1cc(NS(C)(=O)=O)ccc1Nc1c2ccccc2nc2ccc(N)cc12 [Compound M1] | 106%
40 | COc1cc(NS(C)(=O)=O)ccc1Nc1c2ccccc2nc2cc(C)ccc12 [Compound M2] | 88%
41 | COc1cc(NS(C)(=O)=O)ccc1Nc1c2ccccc2nc2cc(C(N)=O)ccc12 [Compound M3] | 150%
42 | CNC(=O)c1ccc2c(Nc3ccc(NS(C)(=O)=O)cc3OC)c3ccccc3nc2c1 [Compound M4] | 92%
43 | COc1cc(NS(C)(=O)=O)ccc1Nc1c2ccccc2nc2cc(Cl)ccc12 [Compound M5] | 72%
44 | COc1cc(NS(C)(=O)=O)ccc1Nc1c2ccccc2nc2cc(Br)ccc12 [Compound M6] | 119%
45 | COc1cc(NS(C)(=O)=O)ccc1Nc1c2ccccc2nc2cc(I)ccc12 [Compound M7] | 98%
46 | COc1cc(NS(C)(=O)=O)ccc1Nc1c2ccccc2nc2cc(C(F)(F)F)ccc12 [Compound M8] | 63%
47 | COc1cc(NS(C)(=O)=O)ccc1Nc1c2ccccc2nc2cc(N)ccc12 [Compound M9] | 82%
48 | CNc1ccc2c(Nc3ccc(NS(C)(=O)=O)cc3OC)c3ccccc3nc2c1 [Compound M10] | 94%
49 | COc1cc(NS(C)(=O)=O)ccc1Nc1c2ccccc2nc2cc([N+](=O)[O-])ccc12 [Compound M11] | 84%
50 | COc1cc(NS(C)(=O)=O)ccc1Nc1c2ccccc2nc2c(C)cccc12 [Compound M12] | 111%
51 | COc1cc(NS(C)(=O)=O)ccc1Nc1c2ccccc2nc2c(C(N)=O)cccc12 [Compound M13] | 112%
52 | CNC(=O)c1cccc2c(Nc3ccc(NS(C)(=O)=O)cc3OC)c3ccccc3nc12 [Compound M14] | 135%
53 | COc1cc(NS(C)(=O)=O)ccc1Nc1c2ccccc2nc2c(C(=O)NCC(N)=O)cccc12 [Compound M15] | 98%
54 | COc1cc(NS(C)(=O)=O)ccc1Nc1c2ccccc2nc2c(OC)cccc12 [Compound M16] | 110%
